Reference: patent EP4273147A1, “SUBSTITUTED SPIROLACTAMS, SALTS THEREOF AND THEIR USE AS HERBICIDALLY ACTIVE SUBSTANCES” (Bayer Aktiengesellschaft, priority 2022, dated 2023)

How the values were obtained:
[1] = test system: ECHCG; test: Herbicidal pre-emergence action (Table A2); format: in vivo, Echinochloa crus-galli; settings: visual grading after ca. 3 weeks
Summary of the method: (§1)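 Seeds of monocot and dicot weeds were sown in pots of sandy loam and covered with soil. Each pot held a double sowing: one monocotyledonous plus one dicotyledonous species.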

[2] = test system: VIOTR; test: Herbicidal post-emergence action, section E (Table E10); format: in vivo, Viola tricolor; settings: application rate 320 g/ha; assessed visually after ca. 3 weeks
Text: (§2) 2 to 3 weeks after sowing, the test plants were sprayed in the single-leaf stage.

[3] = test system: ALOMY; test: Herbicidal pre-emergence action, section C (Table C2); format: in vivo, Alopecurus myosuroides; settings: visual grading after ca. 3 weeks
Text: (§4) Seeds of mono- and dicotyledonous weed plants and crop plants were sown, in plastic or organic planting pots, in sandy loam and covered with soil. The compounds according to the invention, formulated in the form of wettable powders (WP) or as emulsifiable concentrates (EC), were applied to the surface of the covering soil as aqueous suspension or emulsion, with the addition of 0.5% of an additive, at an application rate of 600 1 of water/ha (converted). Following treatment, the pots were placed in a greenhouse and kept under optimum growth conditions for the test plants.

[4] = test system: MATIN; test: Herbicidal pre-emergence action, section C (Table C8); format: in vivo, Matricaria inodora; settings: application rate 320 g/ha; visual grading after ca. 3 weeks
[5] = test system: VERPE; test: Herbicidal pre-emergence action (Table A11); format: in vivo, Veronica persica; settings: application rate 1280 g/ha; visual grading after ca. 3 weeks
Summary of the method: as §1

[6] = test system: MATIN; test: Herbicidal pre-emergence action (Table A4); format: in vivo, Matricaria inodora; settings: visual grading after ca. 3 weeks
Summary of the method: as §1

[7] = test system: POLCO; test: Herbicidal pre-emergence action, section C (Table C9); format: in vivo, Polygonum convolvulus; settings: visual grading after ca. 3 weeks
Text: as §4

[8] = test system: DIGSA; test: Herbicidal pre-emergence action (Table A12); format: in vivo, Digitaria sanguinalis; settings: visual grading after ca. 3 weeks
Summary of the method: as §1

[9] = test system: POAAN; test: Herbicidal post-emergence action (Table B7); format: in vivo, Poa annua
Summary of the method: (§3)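 Visual rating of activity versus untreated plants about 3 weeks after treatment: 0% means no difference from controls, 100% means complete kill. Test weeds were raised from seed in sandy loam under controlled greenhouse conditions and sprayed at the one-leaf stage.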

[10] = test system: ABUTH; test: Herbicidal pre-emergence action, section C (Table C1); format: in vivo, Abutilon theophrasti; settings: application rate 320 g/ha; visual grading after ca. 3 weeks
[11] = test system: LOLRI; test: Herbicidal pre-emergence action (Table A3); format: in vivo, Lolium rigidum; settings: visual grading after ca. 3 weeks
Summary of the method: as §1

[12] = test system: DIGSA; test: Herbicidal pre-emergence action, section C (Table C5); format: in vivo, Digitaria sanguinalis; settings: application rate 320 g/ha; visual grading after ca. 3 weeks
[13] = test system: LOLRI; test: Herbicidal pre-emergence action, section C (Table C7); format: in vivo, Lolium rigidum; settings: application rate 320 g/ha; visual grading after ca. 3 weeks
[14] = test system: BRSNW; test: Post-emergence effects on crop plants (Table F5); format: in vivo, Brassica napus; settings: crop plant BRSNW
Text: as §2

[15] = test system: ALOMY; test: Herbicidal pre-emergence action (Table A9); format: in vivo, Alopecurus myosuroides; settings: application rate 1280 g/ha; visual grading after ca. 3 weeks
Summary of the method: as §1

[16] = test system: SETVI; test: Herbicidal pre-emergence action, section C (Table C10); format: in vivo, Setaria viridis; settings: visual grading after ca. 3 weeks
[17] = test system: TRZAS; test: Pre-emergence effects on crop plants (Table D2); format: in vivo, Triticum aestivum; settings: crop plant; application rate 80 g/ha; visual grading after ca. 3 weeks
[18] = test system: ABUTH; test: Herbicidal pre-emergence action (Table A1); format: in vivo, Abutilon theophrasti; settings: application rate 1280 g/ha; visual grading after ca. 3 weeks vs untreated controls (100% = plants have died off, 0% = as control plants)
Summary of the method: as §1

[19] = test system: STEME; test: Herbicidal pre-emergence action (Table A6); format: in vivo, Stellaria media; settings: application rate 320 g/ha; visual grading after ca. 3 weeks
Summary of the method: as §1

[20] = test system: ZEAMX; test: Post-emergence effects on crop plants (Table F1); format: in vivo, Zea mays; settings: crop plant ZEAMX
Text: as §2

[21] = test system: ECHCG; test: Herbicidal pre-emergence action, section C (Table C6); format: in vivo, Echinochloa crus-galli; settings: application rate 80 g/ha; visual grading after ca. 3 weeks
[22] = test system: ORYZA; test: Post-emergence effects on crop plants (Table F3); format: in vivo, Oryza sativa; settings: application rate 320 g/ha, crop plant ORYZA
Text: as §2

[23] = test system: TRZAS; test: Post-emergence effects on crop plants (Table F2); format: in vivo, Triticum aestivum; settings: crop plant TRZAS
Text: as §2

[24] = test system: AMARE; test: Herbicidal pre-emergence action (Table A8); format: in vivo, Amaranthus retroflexus; settings: application rate 1280 g/ha; visual grading after ca. 3 weeks vs untreated controls (100% = plants have died off, 0% = as control plants)
Text: Seeds of mono- and dicotyledonous weed plants were sown in plastic pots (double sowings with one species of mono- and one species of dicotyledonous weed plants per pot), in sandy loam, and covered with soil.

[25] = test system: ZEAMX; test: Pre-emergence effects on crop plants (Table D1); format: in vivo, Zea mays; settings: crop plant, visual grading after ca. 3 weeks
[26] = test system: ORYZA; test: Pre-emergence effects on crop plants (Table D3); settings: crop plant, visual grading after ca. 3 weeks
[27] = test system: POAAN; test: Herbicidal pre-emergence action (Table A7); format: in vivo, Poa annua; settings: application rate 320 g/ha; visual grading after ca. 3 weeks
Summary of the method: as §1

[28] = test system: SETVI; test: Herbicidal post-emergence action (Table B8); format: in vivo, Setaria viridis; settings: application rate 1280 g/ha
Summary of the method: as §3

[29] = test system: SETVI; test: Herbicidal pre-emergence action (Table A5); format: in vivo, Setaria viridis; settings: application rate 320 g/ha; visual grading after ca. 3 weeks
Summary of the method: as §1

[30] = test system: VERPE; test: Herbicidal pre-emergence action, section C (Table C11); format: in vivo, Veronica persica; settings: application rate 320 g/ha; visual grading after ca. 3 weeks
[31] = test system: GLXMA; test: Post-emergence effects on crop plants (Table F4); format: in vivo, Glycine max; settings: application rate 80 g/ha, crop plant GLXMA
Text: as §2

[32] = test system: ABUTH; test: Herbicidal post-emergence action (Table B1); format: in vivo, Abutilon theophrasti; settings: application rate 1280 g/ha; treated at one-leaf stage; rated visually after about 3 weeks vs untreated controls (100% = plants have died, 0% = like control plants)
Protocol: Seeds of mono- and dicotyledonous weed plants were placed in plastic pots in sandy loam soil (doubly sown with in each case one species of mono- or dicotyledonous weed plants per pot), covered with soil and cultivated in a greenhouse under controlled growth conditions. 2 to 3 weeks after sowing, the test plants were treated at the one-leaf stage. […] After the test plants had been kept in the greenhouse under optimum growth conditions for about 3 weeks, the activity of the preparations was rated visually in comparison to untreated controls. For example, 100% activity = the plants have died, 0% activity = like control plants.

[33] = test system: VIOTR; test: Herbicidal pre-emergence action, section C (Table C12); format: in vivo, Viola tricolor; settings: visual grading after ca. 3 weeks
[34] = test system: MATIN; test: Herbicidal post-emergence action (Table B6); format: in vivo, Matricaria inodora; settings: application rate 1280 g/ha; rated visually after about 3 weeks
Summary of the method: as §3

[35] = test system: ALOMY; test: Herbicidal post-emergence action, section E (Table E2); format: in vivo, Alopecurus myosuroides; settings: application rate 320 g/ha; assessed visually after ca. 3 weeks
Text: as §2

[36] = test system: BRSNW; test: Pre-emergence effects on crop plants (Table D5); format: in vivo, Brassica napus; settings: crop plant; application rate 320 g/ha; visual grading after ca. 3 weeks
[37] = test system: ECHCG; test: Herbicidal post-emergence action (Table B3); format: in vivo, Echinochloa crus-galli; settings: application rate 1280 g/ha; rated visually after about 3 weeks
Summary of the method: as §3

[38] = test system: KCHSC; test: Herbicidal pre-emergence action (Table A10); format: in vivo, Kochia scoparia; settings: application rate 320 g/ha; visual grading after ca. 3 weeks
Summary of the method: as §1

[39] = test system: GLXMA; test: Pre-emergence effects on crop plants (Table D4); format: in vivo, Glycine max; settings: crop plant; application rate 80 g/ha; visual grading after ca. 3 weeks
[40] = test system: ECHCG; test: Herbicidal post-emergence action, section E (Table E5); format: in vivo, Echinochloa crus-galli; settings: application rate 320 g/ha; assessed visually after ca. 3 weeks
Text: as §2

[41] = test system: VERPE; test: Herbicidal post-emergence action, section E (Table E9); format: in vivo, Veronica persica; settings: application rate 320 g/ha; assessed visually after ca. 3 weeks
Text: as §2

Row | SMILES | pre-emergence activity against ECHCG ([1]; application rate 320 g/ha) | pre-emergence activity against ALOMY ([3]; application rate 320 g/ha) | pre-emergence activity against MATIN [4] | pre-emergence activity against VERPE [5] | post-emergence activity against POAAN ([9]; application rate 1280 g/ha) | pre-emergence activity against LOLRI ([11]; application rate 320 g/ha) | pre-emergence activity against DIGSA [12] | pre-emergence activity against LOLRI [13] | post-emergence activity against BRSNW ([14]; application rate 80 g/ha) | pre-emergence activity against ALOMY [15] | pre-emergence activity against TRZAS [17] | pre-emergence activity against ABUTH [18] | pre-emergence activity against STEME [19] | post-emergence activity against ZEAMX ([20]; application rate 80 g/ha) | pre-emergence activity against ECHCG [21] | post-emergence activity against ORYZA [22] | post-emergence activity against TRZAS ([23]; application rate 320 g/ha) | pre-emergence activity against POAAN [27] | pre-emergence activity against SETVI [29] | pre-emergence activity against VERPE [30] | further results
1 | O=C1N(Cc2ccccc2F)CCCC12CCN(Cc1ccccc1F)C2=O (racemic) [I-026] | 100% | 100% | 90% | 90% | 90% | 100% | 100% | 100% | 0% | 100% | 0% | 90% | 90% | 0% | 100% | 0% | 0% | 100% | 100% | 80% | post-emergence activity against VIOTR [2]: 80%; pre-emergence activity against MATIN ([6]; application rate 320 g/ha): 90%; pre-emergence activity against POLCO ([7]; application rate 80 g/ha): 80%; pre-emergence activity against DIGSA ([8]; application rate 320 g/ha): 100%; pre-emergence activity against ABUTH [10]: 80%; pre-emergence activity against SETVI ([16]; application rate 80 g/ha): 100%; pre-emergence activity against AMARE [24]: 90%; pre-emergence activity against ZEAMX ([25]; application rate 80 g/ha): 0%; pre-emergence activity against ORYZA ([26]; application rate 80 g/ha): 0%; post-emergence activity against SETVI [28]: 90%; post-emergence activity against GLXMA [31]: 0%; post-emergence activity against ABUTH [32]: 90%; pre-emergence activity against VIOTR ([33]; application rate 80 g/ha): 90%
2 | O=C1N(Cc2cccc(F)c2F)CCCC12CCCN(Cc1cccc(F)c1F)C2=O (racemic) [I-012] | 100% |  |  |  |  |  |  | 100% |  |  | 20% | 90% | 90% |  | 100% | 10% |  | 100% | 100% | 80% | pre-emergence activity against ALOMY ([3]; application rate 80 g/ha): 90%; pre-emergence activity against MATIN ([6]; application rate 1280 g/ha): 90%; post-emergence activity against POAAN ([9]; application rate 320 g/ha): 100%; pre-emergence activity against LOLRI ([11]; application rate 1280 g/ha): 100%; post-emergence activity against BRSNW ([14]; application rate 320 g/ha): 20%; pre-emergence activity against SETVI ([16]; application rate 320 g/ha): 100%; post-emergence activity against ZEAMX ([20]; application rate 320 g/ha): 0%; post-emergence activity against TRZAS ([23]; application rate 80 g/ha): 0%; pre-emergence activity against ZEAMX ([25]; application rate 80 g/ha): 20%; pre-emergence activity against ORYZA ([26]; application rate 320 g/ha): 10%; post-emergence activity against MATIN [34]: 90%; post-emergence activity against ALOMY [35]: 80%; post-emergence activity against GLXMA [31]: 0%; pre-emergence activity against BRSNW [36]: 0%; pre-emergence activity against VIOTR ([33]; application rate 320 g/ha): 80%
3 | O=C1N(Cc2cccc(F)c2F)CCCC12CCN(Cc1c(F)cccc1F)C2=O (racemic) [I-032] |  | 90% | 80% | 90% | 90% | 100% | 100% | 100% | 0% | 90% | 0% | 90% | 90% | 20% | 100% | 0% | 0% | 100% | 100% | 80% | pre-emergence activity against ECHCG ([1]; application rate 1280 g/ha): 100%; pre-emergence activity against MATIN ([6]; application rate 1280 g/ha): 90%; pre-emergence activity against POLCO ([7]; application rate 320 g/ha): 80%; post-emergence activity against ECHCG [37]: 90%; pre-emergence activity against DIGSA ([8]; application rate 1280 g/ha): 100%; pre-emergence activity against SETVI ([16]; application rate 320 g/ha): 100%; pre-emergence activity against AMARE [24]: 90%; pre-emergence activity against ZEAMX ([25]; application rate 320 g/ha): 0%; pre-emergence activity against ORYZA ([26]; application rate 80 g/ha): 0%; post-emergence activity against SETVI [28]: 90%; pre-emergence activity against KCHSC [38]: 90%; pre-emergence activity against GLXMA [39]: 0%; post-emergence activity against ECHCG [40]: 80%; post-emergence activity against VERPE [41]: 90%; post-emergence activity against ABUTH [32]: 90%; pre-emergence activity against VIOTR ([33]; application rate 80 g/ha): 90%
